Consider 5 molecules from patent US20230312550A1, “N-(2-(4-CYANOTHIAZOLIDIN-3-YL)-2-OXOETHYL)-QUINOLINE-4-CARBOXAMIDES” (AstraZeneca AB, priority 2020, published 2023).

The nature of data set [1]: Metabolic stability in human hepatocytes (hHep). The data set is classed as in vitro ADME. The settings on record: n = 1 or geometric mean of n = 2.
Data set [2] is described as follows: Metabolic stability in rat hepatocytes (rHep). The settings on record: n = 1 or geometric mean of n = 2-3.
Data set [3] can be described thus: Caco-2 cell permeability. To be noted: human.
Protocol: Caco-2 cell permeability was measured as described in Mol Pharm 2017, 14, 1601.
Data set [4] can be described thus: Kinetic solubility. To be noted: kinetic from dmso stock, Solubility, kinetic solubility; n = 1 or average of n = 2-3.
Protocol: Kinetic solubility was measured as described in Comput Aided Mol Des 2015, 29, 795.
Data set [5] has as its target Fibroblast Activation Protein alpha (FAP) (Mus musculus (Mouse), UniProt P97321). The data set can be described thus: in vivo.
Protocol: The effect of test compound on FAP enzyme activity in mouse plasma was evaluated in an enzymatic assay using the Fibroblast Activation Protein alpha (FAP) specific fluorogenic substrate dipeptide-Coumarin, Ala-Pro-AMC, (ARI-3144).
Male C57Bl/6 mice (Charles River, Germany), 8 weeks of age, were single housed in a temperature-controlled room with a 12-hour light/dark cycle (06:00-18:00 light). The mice had ad libitum access to water and rodent chow diet (R70, Lactamin, Kimstad, Sweden), and were acclimated for 5 days upon arrival. After acclimation, all mice received a single oral dose of test compound (3 or 10 mg/kg). Blood samples for whole blood compound exposure measurements were taken at 0.25, 0.5, 1, 2, 4, 8 and 24 h post oral dosing. Samples were collected in EDTA capillary tubes (20 μL, K2E, REF 19.447) and were transferred to a 96-deep well plate (NUNC, Thermo Discher Scientific) and stored at −20° C. until further analyses were performed. Blood samples for plasma FAP enzyme activity measurements were taken at 0, 0.25, 0.5, 1, 2, 8 and 24 h post dosing. 25 μL of whole blood was collected in EDTA Microvette® CB 300 (K2E, REF 16.444.100) tubes, and were centrifuged at 4,000×g for 5 min. 10 μL of plasma was then transferred to PCR tubes and stored at −20° C. until further analysis was performed. All blood samples were taken by vena saphena puncture.
Recombinant human FAP (PB-17-1837, construct PL-17-0278, cd33-FAP (27-757)-6His, Mw85926 Da) was used as a standard for this assay. […] The plates were read on a Beckman Paradigm reader with excitation 360 nm and emission 465 nm. Fluorescence measurements were performed with kinetic read every 5 minutes for 60 min at room temperature. Data were analyzed in Excel (IDBS XLfit Add-In) using a Linear Regression (y=k*x+m) model to prepare a human recombinant FAP standard curve.
On the day of the assay, plasma was diluted (1:2) to 20 μL volume in buffer (PBS, 0.1% BSA) and 7.5 μL was transferred to the assay plate (384-well black, fluotrack PS, Greiner 781076). Ala-Pro-AMC (stock solution in 10 mM DMSO) was diluted in buffer (PBS, 0.1% BSA) to 150 μM concentration (180 μL stock solution to 12 mL buffer) and 7.5 μL added to the assay plate followed by a pipetting mix. The plates were read on a Beckman Paradigm reader with excitation 360 nm and emission 465 nm. Fluorescence measurements were performed with kinetic read every 5 minutes for 60 minutes at room temperature. As noted above, FAP cleaves Ala-Pro-AMC to release free AMC which is measured as a fluorescent signal.
The in vivo potency IC50 of each test compound was then estimated by relating the plasma exposure C of the compound to target engagement E in plasma using the following equation:
where E0 is the FAP baseline in plasma prior to dosing and Imax is the maximum effect of the compound. Data from each target engagement experiment were considered separately and therefore slightly different estimates of FAP baseline for each compound were obtained. […] The parameter estimation was done in Phoenix WinNonlin Certara build 8.1.0.3530 with the algorithm ‘Naïve pooled’ as parameter estimation method.
Data set [6] has as its target human dipeptidylpeptidase 7 (hDPP7) (Homo sapiens (Human), UniProt Q9UHL4). The data set can be described thus: hDPP7 inhibition assay. The class given is biochemical. To be noted: hDPP7 15 nM, Ala-Pro-amino-methylcoumarin 5 μM, n = 1. The procedure: Compounds were tested in a biochemical inhibition assay using human dipeptidylpeptidase 7 (hDPP7) enzyme at 15 nM FAC (BPS Bioscience, #80070) and the substrate Ala-Pro-amino-methylcoumarin (BPS Bioscience, #80305) at 5 μM FAC. The enzymatic reactions were conducted in duplicate at rt for 30 min in 50 μL DPP assay buffer (BPS Bioscience, #80300). Compound solutions (in DMSO) at 10 CR, 3 fold dilution series were prepared in assay buffer ten-fold higher than the final concentration, and 5 μL of the dilution was added to a 50 μL reaction so that the highest compound concentration was 100 μM FAC and the concentration of DMSO was 1% in all wells. The plates were read on a Tecan Infinite M1000 microplate reader with excitation 340 nm and emission 460 nm. Data were analyzed in Graph Pad Prism. IC50 values were determined by plotting % inhibition versus log compound concentration and using a one site dose response model. Raw data signals were normalized using 1% DMSO as 0% control and no enzyme as 100% inhibitor control.

Data set [7] can be described thus: Metabolic stability in human liver microsomes (HLM). To be noted: human, HLM CLint, n = 1 or average of n = 2-3.
Protocol: Metabolic stability in HLM was measured as described in J Comput Aided Mol Des 2015, 29, 795.
The target in data set [8] is human dipeptidylpeptidase 9 (hDPP9) (Homo sapiens (Human), UniProt Q86TI2). The data set can be described thus: hDPP9 inhibition assay. The data set is classed as biochemical. To be noted: hDPP9 0.4 nM, Ala-Pro-amino-methylcoumarin 5 μM, n = 1. The procedure: Compounds were tested in a biochemical inhibition assay using human dipeptidylpeptidase 9 (hDPP9) enzyme at 0.4 nM FAC (BPS Bioscience, #80090) and the substrate Ala-Pro-amino-methylcoumarin (BPS Bioscience #80305) at 5 μM FAC. The enzymatic reactions were conducted in duplicate at rt for 30 min in 50 μL DPP assay buffer (BPS Bioscience, #80300). […] The plates were read on a Tecan Infinite M1000 microplate reader with excitation 340 nm and emission 460 nm. Data were analyzed in Graph Pad Prism. IC50 values were determined by plotting % inhibition versus log compound concentration and using a one site dose response model. Raw data signals were normalized using 1% DMSO as 0% control and no enzyme as 100% inhibitor control.
human dipeptidylpeptidase 9 (hDPP9), sequence (Q86TI2 whole entry): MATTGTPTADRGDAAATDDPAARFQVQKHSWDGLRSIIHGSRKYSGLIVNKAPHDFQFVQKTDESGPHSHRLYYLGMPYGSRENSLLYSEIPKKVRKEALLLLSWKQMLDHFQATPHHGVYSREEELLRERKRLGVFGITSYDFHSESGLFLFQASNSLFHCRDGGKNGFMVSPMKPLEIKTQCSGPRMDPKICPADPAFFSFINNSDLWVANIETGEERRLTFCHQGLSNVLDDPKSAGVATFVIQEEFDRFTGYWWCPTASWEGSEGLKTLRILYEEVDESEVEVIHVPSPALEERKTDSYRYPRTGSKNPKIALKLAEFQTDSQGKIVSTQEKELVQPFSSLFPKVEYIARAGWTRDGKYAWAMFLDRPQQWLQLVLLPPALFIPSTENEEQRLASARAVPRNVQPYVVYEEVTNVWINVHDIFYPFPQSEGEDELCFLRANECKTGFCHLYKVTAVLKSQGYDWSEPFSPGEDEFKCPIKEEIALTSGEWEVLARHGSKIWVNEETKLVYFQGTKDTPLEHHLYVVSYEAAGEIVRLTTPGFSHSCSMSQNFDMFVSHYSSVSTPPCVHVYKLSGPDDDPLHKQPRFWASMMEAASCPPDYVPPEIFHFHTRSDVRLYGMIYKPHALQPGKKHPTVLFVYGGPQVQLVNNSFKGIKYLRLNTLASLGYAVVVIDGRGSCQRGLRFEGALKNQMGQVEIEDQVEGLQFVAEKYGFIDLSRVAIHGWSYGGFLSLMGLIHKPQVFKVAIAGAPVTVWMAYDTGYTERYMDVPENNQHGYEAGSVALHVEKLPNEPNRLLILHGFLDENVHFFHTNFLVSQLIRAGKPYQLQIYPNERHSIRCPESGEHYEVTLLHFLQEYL

The target of data set [9] is FAP (Mus musculus (Mouse), UniProt P97321). The data set can be described thus: FAP plasma inhibition assay, mouse plasma. The settings on record: mouse plasma diluted 1:67, Ala-Pro-AMC 75 μM. The class given is biochemical. The method in brief:
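K2EDTA plasma served as enzyme source, human diluted 1:40 and mouse 1:67, in PBS with 0.1% BSA. Compounds ran as a 10-point 3-fold series from 500 nM final, in duplicate, 40 min at rt in the dark, with fluorescence read against a pre-substrate blank. IC50 came from % inhibition versus log concentration.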

In brackets after ≈: the same amount, converted by molar mass.

FAP, sequence (P97321 24-761): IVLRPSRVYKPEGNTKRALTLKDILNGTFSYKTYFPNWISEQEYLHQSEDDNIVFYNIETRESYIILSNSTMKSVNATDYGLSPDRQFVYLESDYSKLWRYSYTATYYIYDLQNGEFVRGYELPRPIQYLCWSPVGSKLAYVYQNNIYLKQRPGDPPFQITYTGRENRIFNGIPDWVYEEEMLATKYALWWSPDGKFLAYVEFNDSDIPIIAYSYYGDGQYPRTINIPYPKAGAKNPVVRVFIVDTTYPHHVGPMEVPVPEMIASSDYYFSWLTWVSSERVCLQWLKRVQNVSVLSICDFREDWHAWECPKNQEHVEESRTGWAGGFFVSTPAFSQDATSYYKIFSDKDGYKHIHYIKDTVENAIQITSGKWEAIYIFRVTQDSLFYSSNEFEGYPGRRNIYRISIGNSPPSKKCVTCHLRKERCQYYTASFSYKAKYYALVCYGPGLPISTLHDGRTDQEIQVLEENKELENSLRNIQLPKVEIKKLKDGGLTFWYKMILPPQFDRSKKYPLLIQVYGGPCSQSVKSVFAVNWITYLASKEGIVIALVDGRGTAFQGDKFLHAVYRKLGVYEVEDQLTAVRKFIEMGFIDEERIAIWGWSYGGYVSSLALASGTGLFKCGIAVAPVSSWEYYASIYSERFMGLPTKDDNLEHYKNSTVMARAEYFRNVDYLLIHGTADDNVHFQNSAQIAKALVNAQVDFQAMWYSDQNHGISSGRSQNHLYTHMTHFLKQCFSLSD
Fibroblast Activation Protein alpha (FAP), sequence (P97321 24-761): as above

`C[C@H]1CN(c2ccc3nccc(C(=O)NCC(=O)N4CSC[C@H]4C#N)c3c2)CCO1` [Example 80, N-(2-((R)-4-Cyanothiazolidin-3-yl)-2-oxoethyl)-6-((S)-2-methylmorpholino)-quinoline-4-carboxamide]: in [1], the “hHep CLint” value is less than 1 μL/min/1E6. In data set [2], the “rHep CLint” value stood at 2 μL/min/1E6. The Papp A→B in [3] is 0.81 ×10⁻⁶ cm/s. For the same molecule, the Papp B→A in data set [3] stood at 25 ×10⁻⁶ cm/s. The same molecule displayed a solubility in data set [4] of 980 µM (≈ 417 µg/mL). The IC50 was 9 nM in data set [5], greater than 100000 nM in data set [6] and 1400 nM in data set [8]. The same molecule yielded an intrinsic metabolic clearance (microsomal CLint) in data set [7] of 7.5 µL/min/mg.
For `C[C@@H]1CN(c2ccc3nccc(C(=O)NCC(=O)N4CSC[C@H]4C#N)c3c2)CCO1` [Example 72, N-(2-((R)-4-Cyanothiazolidin-3-yl)-2-oxoethyl)-6-((R)-2-methylmorpholino)-quinoline-4-carboxamide], the “hHep CLint” value in data set [1] was less than 1 μL/min/1E6. The “rHep CLint” value in data set [2] was 2.7 μL/min/1E6. This molecule also gave a Papp A→B in data set [3] of 1.3 ×10⁻⁶ cm/s. Also, in data set [3], the Papp B→A is 24 ×10⁻⁶ cm/s. Further, the IC50 in data set [9] was 0.2 nM; in [5], 7.2 nM; in [6], greater than 100000 nM; in data set [8], 2500 nM. For the same molecule, the solubility in data set [4] is greater than 1000 µM. This molecule showed a microsomal CLint in data set [7] of 9.7 µL/min/mg.
Consider `N#C[C@@H]1CSCN1C(=O)CNC(=O)c1ccnc2ccc(N3CCO[C@H](CF)C3)cc12` [Example 71, N-(2-((R)-4-Cyanothiazolidin-3-yl)-2-oxoethyl)-6-((S)-2-(fluoromethyl)morpholino)-quinoline-4-carboxamide], for which the IC50 in data set [9] is 0.2 nM; in [5], 2.8 nM; in data set [6], greater than 100000 nM; in data set [8], 1900 nM.
In the case of `N#C[C@@H]1CSCN1C(=O)CNC(=O)c1ccnc2ccc(N3CCO[C@@H](CF)C3)cc12` [Example 69, N-(2-((R)-4-Cyanothiazolidin-3-yl)-2-oxoethyl)-6-((R)-2-(fluoromethyl)morpholino)-quinoline-4-carboxamide], the IC50 in data set [5] is 2.1 nM; in data set [6], greater than 100000 nM; in [8], 950 nM.
Take `CC1(CF)CN(c2ccc3nccc(C(=O)NCC(=O)N4CSC[C@H]4C#N)c3c2)C1` [Example 27, (R)—N-(2-(4-Cyanothiazolidin-3-yl)-2-oxoethyl)-6-(3-(fluoromethyl)-3-methylazetidin-1-yl)quinoline-4-carboxamide]: the IC50 is 0.5 nM in [9], 1.4 nM in data set [5] and greater than 100000 nM in data set [6].
